Data as given in US7345030B2, “Use of n-acetyl-d-aminoglycosamine in treatment of organ lesions related to toxicosis of drugs or chemicals” (priority 2003, dated 2008).

How the values were obtained:
Proteus Mirabilis = experiment: Promoting wave test (bio-wave model); format: cell-based; conditions: final concentration 0.5% in LB plate, 37° C., 9 hours, compared with control sample
Text: 1. Experimental Materials and Method:
1.1 Sample: Pure Compound of Formula (I)
1.2 Experimental Materials:
• Strain: Proteus Mirabilis that meets the following biochemical reaction characteristics: dynamics (+), urease (+), lactose (−), glucose (+), H2S (−), phenylalanine deaminase (+). • Culture medium: modified LB culture medium (components: 1% tryptones, 0.5% yeast extract, 1% sodium chloride, 0.1% glucose, 0.002% TTC, and pH=7.2 to 7.4). 1.3 Experimental Method: • Control sample: the Proteus Mirabilis were inoculated at the center of LB plate, and incubated at 37° C. for 9 hours; • Test sample: the compound of formula (I) with a final concentration of 0.5% was added to the LB plate, then the Proteus Mirabilis were inoculated by the same method, and cultured at 37° C. for 9 hours. 2. […] It is anticipated that this wave-promoting function could treat organ lesions caused by toxicants and drugs.

[1] = tested on: Kunming mice lead poisoning models (litharge); experiment: Lead poisoning test; format: in vivo
Description: (§1) 30 Kunming mice were randomly divided into two groups, i.e., 15 mice in test group (I) and 15 mice in test group (II), and another 15 mice were used as control. Each mouse was fed with methanol in a dose of 0.2 ml/20 g bodyweight. […] The mice of the test group (I) were intra-peritoneally injected with an aqueous solution of N-acetyl-D-glucosamine having a concentration of 0.1 g/ml in a dose of 0.1 ml/20 g bodyweight, just after they were fed with methanol. […] The mice of the test group (II) were intra-peritoneally injected with an aqueous solution of N-acetyl-D-glucosamine having a concentration of 0.1 g/ml in a dose of […], just after they were fed with methanol. […] 2. Rogor Poisoning Test 30 Kunming mice were randomly divided into three groups, i.e., 10 mice in control group, 10 mice in test group (I) and 10 mice in test group (II). The mice were orally fed with 10000 times diluted rogor stock solution (commercially obtained from Chongqing Agriculture Chemicals Group, 500 ml/bottle, standard: GB15583-1995) in a dose of 0.5 ml per mouse for consecutive 3 days. […] The mice of the test groups were treated by intra-peritoneal injection of an aqueous solution of N-acetyl-D-glucosamine having a concentration of 5 g/100 ml in a dose of 0.2 ml for the test group (I) and a dose of 2 ml for the test group (II). […] 3. Lead Poisoning Test 30 Kunming mice were made as lead poisoning models by a method of feeding litharge. […] The mice of the test group (I) were treated by intra-peritoneal injection of N-acetyl-D-glucosamine in a dose of 0.2 ml×10% (weight/volume), and the mice of the test group (II) were treated by intra-peritoneal injection with N-acetyl-D-glucosamine in a dose of 2 ml×10% (weight/volume). The death rate of mice was separately 7/10 and 2/10 within 3 days, and the death rate of mice was 1/3 and 0/8 within the following 4 days. […] According to the above examples, N-acetyl-D-glucosamine can effectively eliminate toxic effects of at least toxicants such as metal ions, organophosphorus pesticides, methanol, etc. that have different action mechanisms.

[2] = tested on: Kunming mice fed with rogor; experiment: Rogor poisoning test; format: in vivo; conditions: 10 mice, i.p. 5 g/100 ml aqueous solution
Description: 30 Kunming mice were randomly divided into two groups, i.e., 15 mice in test group (I) and 15 mice in test group (II), and another 15 mice were used as control. Each mouse was fed with methanol in a dose of 0.2 ml/20 g bodyweight. […] The mice of the test group (I) were intra-peritoneally injected with an aqueous solution of N-acetyl-D-glucosamine having a concentration of 0.1 g/ml in a dose of 0.1 ml/20 g bodyweight, just after they were fed with methanol. […] The mice of the test group (II) were intra-peritoneally injected with an aqueous solution of N-acetyl-D-glucosamine having a concentration of 0.1 g/ml in a dose of […], just after they were fed with methanol. […] 2. Rogor Poisoning Test 30 Kunming mice were randomly divided into three groups, i.e., 10 mice in control group, 10 mice in test group (I) and 10 mice in test group (II). The mice were orally fed with 10000 times diluted rogor stock solution (commercially obtained from Chongqing Agriculture Chemicals Group, 500 ml/bottle, standard: GB15583-1995) in a dose of 0.5 ml per mouse for consecutive 3 days. […] The mice of the test groups were treated by intra-peritoneal injection of an aqueous solution of N-acetyl-D-glucosamine having a concentration of 5 g/100 ml in a dose of 0.2 ml for the test group (I) and a dose of 2 ml for the test group (II). […] 3. […]

[3] = tested on: Kunming mice fed with methanol; experiment: Methanol poisoning test; format: in vivo; conditions: 15 mice, i.p. 0.1 g/ml aqueous solution
Description: 1. Methanol Poisoning Test
as §1

mice = experiment: Reproduction test; format: in vivo; conditions: mice fed 7 mg/kg for 3 generations
[4] = Long-period toxicity test; format: in vivo; conditions: maximum dosage up to 1 g/kg, treatment and observation for four weeks
Text: (§2) The toxicological test of the compound of formula (I) includes: • 1. Acute toxicity test: including tests of oral administration, intravenous injection administration, and maximum limit amount for administration; • 2. Ames test; • 3. Micronucleus test of mouse bone marrow cell; • 4. Abnormality test of mouse sperm; • 5. Aberration test of mouse testis chromosome; • 6. Chronic lethal test; • 7. Sub-chronic toxicity (feed for 90 days) test; • 8. Traditional deformity-inducing test.

Acute toxicity test = format: in vivo
Text: as §2

[5] = test group (I), i.p. 0.2 ml×10% (weight/volume)
[6] = test group (II), i.p. 2 ml×10% (weight/volume)
[7] = test group (I), 0.1 ml/20 g bodyweight
[8] = test group (II), 2 ml/20 g bodyweight

CC(=O)N[C@@H]1[C@@H](O)[C@H](O)[C@@H](CO)O[C@H]1O [compound of formula (I), N-acetyl-D-glucosamine]
wave pattern of the colony (bio-wave promoting function) (Proteus Mirabilis): many fine waves on each ring
death rate within 3 days [1, 5]: 7/10
death rate within the following 4 days [1, 5]: 1/3
death rate within 3 days [1, 6]: 2/10
death rate within the following 4 days [1, 6]: 0/8
mice died ([2]; test group (I), 0.2 ml): 4 mice
mice died ([2]; test group (II), 2 ml): 1 mouse
mice sequentially died [3, 7]: 5 mice
mice with obvious psychiatric symptoms [3, 7]: 2 mice
mice blind after 2 hours ([3]; test group (I), 0.1 ml/20 g bodyweight, just after methanol 0.2 ml/20 g): 8 mice
blind mice [3, 8]: no mouse was blind
mice died within 12 hours [3, 8]: 2 mice
mice with delirium and myasthenia of limbs [3, 8]: 4 mice
influence on pregnancy, birth, nurse and growth of baby mice (mice): no influence
intoxication reaction in long-period toxicity test [4]: no intoxication reaction
dosage at which the acute toxicosis reaction had not appeared (Acute toxicity test): more than 2 g/kg
